Laboratory results reported in patent publication US20240116985A1, “STAPLED PEPTIDES AND METHODS THEREOF” (priority 2020, published 2024).

Target: T1, full-length beta-Catenin (Uniprot ID P35222) (Homo sapiens, UniProt P35222)
T1 construct: 10 nM full-length beta-Catenin (Uniprot ID P35222)
T1 sequence (P35222 1-781): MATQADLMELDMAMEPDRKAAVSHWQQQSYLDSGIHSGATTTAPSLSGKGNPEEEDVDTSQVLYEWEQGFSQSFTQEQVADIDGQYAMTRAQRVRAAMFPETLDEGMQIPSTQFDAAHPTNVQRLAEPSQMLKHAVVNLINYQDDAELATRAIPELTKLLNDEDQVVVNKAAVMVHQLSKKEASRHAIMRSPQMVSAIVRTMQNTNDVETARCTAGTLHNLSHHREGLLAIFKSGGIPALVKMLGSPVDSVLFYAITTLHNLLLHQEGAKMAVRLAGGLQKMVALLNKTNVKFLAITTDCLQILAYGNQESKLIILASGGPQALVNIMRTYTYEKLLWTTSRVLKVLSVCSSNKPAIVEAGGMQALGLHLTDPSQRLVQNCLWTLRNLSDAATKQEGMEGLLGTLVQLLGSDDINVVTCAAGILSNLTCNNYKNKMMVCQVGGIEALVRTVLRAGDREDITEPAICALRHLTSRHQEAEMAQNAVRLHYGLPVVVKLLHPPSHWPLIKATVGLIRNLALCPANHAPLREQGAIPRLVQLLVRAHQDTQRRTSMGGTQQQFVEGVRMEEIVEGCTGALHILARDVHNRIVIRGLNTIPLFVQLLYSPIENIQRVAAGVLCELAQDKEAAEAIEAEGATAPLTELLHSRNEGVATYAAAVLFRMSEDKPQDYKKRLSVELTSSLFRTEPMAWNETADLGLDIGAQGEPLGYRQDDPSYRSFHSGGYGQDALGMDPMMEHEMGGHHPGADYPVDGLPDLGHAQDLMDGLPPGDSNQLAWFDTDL
Assay: Fluorescence polarization IC50 (beta-catenin / 5FAM-TCF4 10-53 competition)
Type: binding
Details: fluorescence polarization; read-out: beta-Catenin FP IC50

Row | IC50 [nM] | SMILES
1 | 6 | CC(=O)N1CCC[C@]12CC=CCCCC1(CCCC=CCCCOC(=O)N3CC[C@@](C(=O)N[C@@H](Cc4ccsc4)C(=O)N[C@@H](Cc4csc5ccccc45)C(=O)N[C@@H](Cc4c[nH]cn4)C(=O)N[C@@H](CCCCN)C(N)=O)(C3)NC(=O)[C@H](CCC(N)=O)NC(=O)[C@H](Cc3ccccc3)NC(=O)[C@H](C)NC(=O)[C@H](C)NC(=O)[C@H](CC(=O)O)NC(=O)[C@H](CC(=O)O)NC1=O)NC(=O)[C@H](CC(C)(C)C)NC(=O)[C@H](CC(=O)O)NC2=O (stereo partly drawn) [I-2229, Ac-PL3-Asp-Npg-B5-Asp-Asp-Ala-Ala-Phe-Gln-PyrS2-3thi-BztA-His-Lys-NH2]
2 | 789 | CC(=O)N1CCC[C@]12CC=CCCCC1(CCCC=CCCCOC(=O)N3CC[C@@](C(=O)N[C@@H](Cc4ccsc4)C(=O)N[C@@H](Cc4csc5ccccc45)C(=O)N[C@@H](CCO)C(N)=O)(C3)NC(=O)[C@H](CC(N)=O)NC(=O)[C@H](Cc3ccccc3)NC(=O)[C@H](C)NC(=O)[C@H](CCCCNC(C)C)NC(=O)[C@H](CCC(N)=O)NC(=O)[C@H](CC(=O)O)NC1=O)NC(=O)[C@H](CC1CCCCC1)NC(=O)[C@H](CC(N)=O)NC2=O (stereo partly drawn) [I-2074, Ac-PL3-Asn-Cha-B5-Asp-Gln-iPrLys-Ala-Phe-Asn-PyrS2-3Thi-BztA-Hse-NH2]
3 | 1970 | CC(=O)N1CCC[C@]12CC=CCCCC1(CCCC=CCCCOC(=O)N3CC[C@@](C(=O)N[C@@H](Cc4ccsc4)C(=O)N[C@@H](Cc4csc5ccccc45)C(=O)N[C@@H](CCC(N)=O)C(N)=O)(C3)NC(=O)[C@H](CC(N)=O)NC(=O)[C@H](Cc3cccc(C(F)(F)F)c3)NC(=O)[C@H](C)NC(=O)[C@H](C)NC(=O)[C@H]([C@@H](C)O)NC(=O)[C@H](CC(N)=O)NC1=O)NC(=O)[C@H](CC(C)(C)C)NC(=O)[C@H](CC(=O)O)NC2=O (stereo partly drawn) [I-2010, Ac-PL3-Asp-Npg-B5-Asn-Thr-Ala-Ala-3F3MeF-Asn-PyrS2-3Thi-BztA-Gln-NH2]
4 | 867 | CC(=O)N1CCC[C@]12CC=CCCCC1(CCCC=CCCCOC(=O)N3CC[C@@](C(=O)N[C@@H](Cc4ccsc4)C(=O)N[C@@H](Cc4csc5ccccc45)C(N)=O)(C3)NC(=O)[C@H](CC(N)=O)NC(=O)[C@H](Cc3ccccc3)NC(=O)[C@H](C)NC(=O)[C@H](C)NC(=O)[C@H]([C@@H](C)O)NC(=O)[C@H](CC(N)=O)NC1=O)NC(=O)[C@H](CC(C)(C)C)NC(=O)[C@H](CC(=O)O)NC2=O (stereo partly drawn) [I-1742, Ac-PL3-Asp-Npg-B5-Asn-Thr-Ala-Ala-Phe-Asn-PyrS2-3Thi-BztA-NH2]
5 | 3360 | CC(=O)N1CCC[C@]12CC=CCCCC1(CCCC=CCCCOC(=O)N3CC[C@@](C(=O)N[C@@H](Cc4ccccc4)C(=O)N[C@@H](Cc4csc5ccccc45)C(=O)N[C@@H](CCCCN)C(N)=O)(C3)NC(=O)[C@H](CC(C)C)NC(=O)[C@H](Cc3ccccc3)NC(=O)[C@H](C)NC(=O)[C@H](CO)NC(=O)[C@H](CCC(N)=O)NC(=O)[C@H](CC(=O)O)NC1=O)NC(=O)[C@H](CC1CCCCC1)NC(=O)[C@H](CC(N)=O)NC2=O (stereo partly drawn) [I-2422, Ac-PL3-Asn-Cha-B5-Asp-Gln-Ser-Ala-Phe-Leu-PyrS2-Phe-BztA-Lys-NH2]
6 | 7180 | CC(=O)N1CCC[C@]12CC=CCCCC1(CCCC=CCCCOC(=O)N3CC[C@@](C(=O)N[C@@H](Cc4ccsc4)C(=O)N[C@@H](Cc4csc5ccccc45)C(=O)N[C@@H](CCC(N)=O)C(N)=O)(C3)NC(=O)[C@H](CC(N)=O)NC(=O)[C@H](Cc3ccccc3)NC(=O)[C@H](C)NC(=O)[C@H](C)NC(=O)[C@H](Cc3ccc(O)cc3)NC(=O)[C@H](CC(N)=O)NC1=O)NC(=O)[C@H](CC(C)(C)C)NC(=O)[C@H](CC(=O)O)NC2=O (stereo partly drawn) [I-1568, Ac-PL3-Asp-Npg-B5-Asn-Tyr-Ala-Ala-Phe-Asn-PyrS2-3Thi-BztA-Gln-NH2]
7 | 8750 | CC(=O)N1CCC[C@]12CC=CCCCC1(CCCC=CCCCOC(=O)N3CC[C@@](C(=O)N[C@@H](Cc4ccsc4)C(=O)N[C@@H](Cc4csc5ccccc45)C(=O)N[C@@H](CCC(N)=O)C(N)=O)(C3)NC(=O)[C@H](CC(N)=O)NC(=O)[C@H](Cc3ccccc3)NC(=O)[C@H](C)NC(=O)[C@H](C)NC(=O)[C@H]([C@@H](C)O)NC(=O)[C@H](CC(N)=O)NC1=O)NC(=O)[C@H](CC(C)(C)C)NC(=O)[C@H](CCCC(=O)O)NC2=O (stereo partly drawn) [I-2133, Ac-PL3-Aad-Npg-B5-Asn-Thr-Ala-Ala-Phe-Asn-PyrS2-3Thi-BztA-Gln-NH2]

Continued, compound first:

Row | SMILES | IC50 [nM]
8 | CC(=O)N1CCC[C@]12CC=CCCCC1(CCCC=CCCCOC(=O)N3CC[C@@](C(=O)N[C@@H](Cc4ccsc4)C(=O)N[C@@H](Cc4csc5ccccc45)C(=O)N[C@@H](CCC(N)=O)C(=O)N[C@@H](C)CO)(C3)NC(=O)[C@H](CC(C)C)NC(=O)[C@H](Cc3ccccc3)NC(=O)[C@H](C)NC(=O)[C@H](C)NC(=O)[C@H](CN(CC(=O)O)CC(F)(F)F)NC(=O)[C@H](CC(=O)O)NC1=O)NC(=O)[C@H](CC(C)(C)C)NC(=O)[C@H](CC(=O)O)NC2=O (stereo partly drawn) [I-1679, Ac-PL3-Asp-Npg-B5-Asp-TfeGA-Ala-Ala-Phe-Leu-PyrS2-3Thi-BztA-Gln-Alao1] | 17.5
9 | CC(=O)N1CCC[C@]12CC=CCCCC1(CCCC=CCCCOC(=O)N3CC[C@@](C(=O)N[C@@H](Cc4ccsc4)C(=O)N[C@@H](Cc4c[nH]c5ncccc45)C(=O)N[C@@H](CCC(N)=O)C(N)=O)(C3)NC(=O)[C@H](CC(N)=O)NC(=O)[C@H](Cc3ccccc3)NC(=O)[C@H](C)NC(=O)[C@H](C)NC(=O)[C@H](CC(=O)O)NC(=O)[C@H](CC(=O)O)NC1=O)NC(=O)[C@H](CC(C)(C)C)NC(=O)[C@H](CC(=O)O)NC2=O (stereo partly drawn) [I-2180, Ac-PL3-Asp-Npg-B5-Asp-Asp-Ala-Ala-Phe-Asn-PyrS2-3Thi-7AzaW-Gln-NH2] | 2090
10 | CC(=O)N1CCC[C@]12CC=CCCCC1(CCCC=CCCCOC(=O)N3CC[C@@](C(=O)N[C@@H](Cc4ccccc4)C(=O)N[C@@H](Cc4csc5ccccc45)C(=O)N[C@@H](CCC(N)=O)C(N)=O)(C3)NC(=O)[C@H](Cc3c[nH]cn3)NC(=O)[C@H](Cc3ccccc3)NC(=O)[C@H](C)NC(=O)[C@H](C)NC(=O)[C@H](CCC(N)=O)NC(=O)[C@H](CC(=O)O)NC1=O)NC(=O)[C@H](CC(C)(C)C)NC(=O)[C@H](CCO)NC2=O (stereo partly drawn) [I-2439, Ac-PL3-Hse-Npg-B5-Asp-Gln-Ala-Ala-Phe-His-PyrS2-Phe-BztA-Gln-NH2] | 2760
11 | CC(=O)N1CCC[C@]12CC=CCCCC1(CCCC=CCCCOC(=O)N3CC[C@@](C(=O)N[C@@H](Cc4ccccc4Cl)C(=O)N[C@@H](Cc4csc5ccccc45)C(=O)N[C@@H](Cc4ccccc4)C(N)=O)(C3)NC(=O)[C@H](C)NC(=O)[C@H](Cc3ccccc3)NC(=O)[C@H](C)NC(=O)[C@H](C)NC(=O)[C@H](Cc3cccc(C(=O)O)c3)NC(=O)[C@H](CC(=O)O)NC1=O)NC(=O)[C@H](CC(C)(C)C)NC(=O)[C@H](CC(=O)O)NC2=O (stereo partly drawn) [I-2025, Ac-PL3-Asp-Npg-B5-Asp-3COOHF-Ala-Ala-Phe-Ala-PyrS2-2C1F-BztA-Phe-NH2] | 109
12 | CC(=O)N1CCC[C@]12CC=CCCCCC1(CCCCC=CCCCOC(=O)N3CC[C@@](C(=O)N[C@@H](Cc4ccccc4C(F)(F)F)C(=O)N[C@@H](Cc4csc5ccccc45)C(=O)N[C@@H](CCC(N)=O)C(N)=O)(C3)NC(=O)[C@H](CC(C)C)NC(=O)[C@H](Cc3ccccc3)NC(=O)[C@H](C)NC(=O)[C@H](C)NC(=O)[C@H](Cc3cccc(C(=O)O)c3)NC(=O)[C@H](CC(=O)O)NC1=O)NC(=O)[C@H](CC(C)(C)C)NC(=O)[C@H](CC(=O)O)NC2=O (stereo partly drawn) [I-2514, Ac-PL3-Asp-Npg-B6-Asp-3COOHF-Ala-Ala-Phe-Leu-PyrS2-2F3MeF-BztA-Gln-NH2] | 74
13 | CC(=O)N1CCC[C@]12CC=CCCCC1(CCCC=CCCCOC(=O)N3CC[C@@](C(=O)N[C@@H](Cc4ccsc4)C(=O)N[C@@H](Cc4csc5ccccc45)C(=O)N[C@@H](Cc4ccccc4)C(N)=O)(C3)NC(=O)[C@H]([C@@H](C)O)NC(=O)[C@H](Cc3ccccc3)NC(=O)[C@H](C)NC(=O)[C@H](C)NC(=O)[C@H]([C@@H](C)O)NC(=O)[C@H](CC(N)=O)NC1=O)NC(=O)[C@H](CC(C)(C)C)NC(=O)[C@H](CC(=O)O)NC2=O (stereo partly drawn) [I-2144, Ac-PL3-Asp-Npg-B5-Asn-Thr-Ala-Ala-Phe-Thr-PyrS2-3Thi-BztA-Phe-NH2] | 2020
14 | CC(=O)N[C@]1(C)CCCC=CCCCC2(CCCC=CCCCOC(=O)N3CC[C@@](C(=O)N[C@@H](Cc4ccccc4C(F)(F)F)C(=O)N[C@@H](Cc4csc5ccccc45)C(=O)N[C@@H](CCC(N)=O)C(N)=O)(C3)NC(=O)[C@H](CC(C)C)NC(=O)[C@H](Cc3ccccc3)NC(=O)[C@H](C)NC(=O)[C@H](C)NC(=O)[C@H](Cc3cccc(C(=O)O)c3)NC(=O)[C@H](CC(=O)O)NC2=O)NC(=O)[C@H](CC(C)(C)C)NC(=O)[C@H](CC(=O)O)NC1=O (stereo partly drawn) [I-2564, Ac-R5-Asp-Npg-B5-Asp-3COOHF-Ala-Ala-Phe-Leu-PyrS2-2F3MeF-BztA-Gln-NH2] | 259
15 | CC(=O)N1CCC[C@]12CC=CCCCC1(CCCC=CCCCCOC(=O)N3CC(C(=O)N[C@@H](Cc4ccccc4C(F)(F)F)C(=O)N[C@@H](Cc4csc5ccccc45)C(=O)N[C@@H](CCC(N)=O)C(N)=O)(C3)NC(=O)[C@H](CC(C)C)NC(=O)[C@H](Cc3ccccc3)NC(=O)[C@H](C)NC(=O)C(C)(C)NC(=O)[C@H](Cc3cccc(C(=O)O)c3)NC(=O)[C@H](CC(=O)O)NC1=O)NC(=O)[C@H](CC(C)(C)C)NC(=O)[C@H](CC(=O)O)NC2=O (stereo partly drawn) [I-2616, Ac-PL3-Asp-Npg-B5-Asp-3COOHF-Aib-Ala-Phe-Leu-Az3-2F3MeF-BztA-Gln-NH2] | 175
